Experimental findings from patent US6730670B2, “7-phenyl-benzo[b]thiophen amide derivatives” (Hoffmann-La Roche Inc., priority 2001, dated 2004) are described below.

This assay deals with T1, human adenosine A2A receptor (Homo sapiens, UniProt P29274).
T1 construct: expressed in transfected cells; host or cells: CHO cells, Semliki Forest virus expression system; washed membrane preparation
Description: [3H]-SCH-58261 binding assay, human adenosine A2A receptor (CHO cell membranes, SPA). The conditions noted are these: [3H]-SCH-58261 1 nM; membranes of CHO cells expressing human A2A receptor; Ki from IC50 by Cheng-Prussoff equation; read-out: hA2 (pKi) (converted). The procedure:
Human Adenosine A2A Receptor
The human adenosine A2A receptor was recombinantly expressed in chinese hamster ovary (CHO) cells using the semliki forest virus expression system. Cells were harvested, washed twice by centrifugation, homogenized and again washed by centrifugation. The final washed membrane pellet was suspended in a Tris (50 mM) buffer containing 120 mM NaCl, 5 mM KCl, 2 mM CaCl2 and 10 mM MgCl2 (pH 7.4) (buffer A). The [^3H]-SCH-58261 (Dionisotti et al., 1997, Br J Pharmacol 121, 353; 1 nM) binding assay was carried out in 96-well plates in the presence of 2.5 μg of membrane protein, 0.5 mg of Ysi-poly-1-lysine SPA beads and 0.1 U adenosine deaminase in a final volume of 200 μl of buffer A. Non-specific binding was defined using xanthine amine congener (XAC; 2 μM). Compounds were tested at 10 concentrations from 10 μM-0.3 nM. All assays were conducted in duplicate and repeated at least two times. Assay plates were incubated for 1 hour at room temperature before centricentrifugation and then bound ligand determined of test compound using a Packard Topcount scintillation counter. IC50 values, the concentration where 50% of the […] binding is displaced, were calculated using a non-linear curve fitting program and Ki values calculated using the Cheng-Prussoff equation.
Preferred compounds of formula I have a pKi>6.4.

T1 sequence (P29274 whole entry): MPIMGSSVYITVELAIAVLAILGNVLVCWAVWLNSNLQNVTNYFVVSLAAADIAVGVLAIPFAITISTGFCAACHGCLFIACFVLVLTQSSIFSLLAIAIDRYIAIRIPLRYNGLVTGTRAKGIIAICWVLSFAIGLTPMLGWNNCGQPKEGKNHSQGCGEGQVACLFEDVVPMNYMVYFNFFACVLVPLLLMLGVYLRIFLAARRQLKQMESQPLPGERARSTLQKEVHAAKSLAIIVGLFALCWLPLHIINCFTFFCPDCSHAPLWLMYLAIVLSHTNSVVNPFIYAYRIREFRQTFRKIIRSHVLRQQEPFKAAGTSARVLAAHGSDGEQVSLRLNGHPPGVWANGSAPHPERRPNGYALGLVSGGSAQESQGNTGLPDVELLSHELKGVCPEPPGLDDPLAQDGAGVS

For the compound `COc1ccc(-c2ccccc2)c2sc(NC(=O)N3CCSCC3)cc12` [Example 1, Thiomorpholine-4-carboxylic acid (4-methoxy-7-phenyl-benzo[b]thiophen-2-yl)-amide], the Ki was 155 nM. Take `COc1ccc(-c2ccccc2)c2sc(NC(=O)N3CCOCC3)cc12` [Example 2, Morpholine-4-carboxylic acid (4-methoxy-7-phenyl-benzo[b]thiophen-2-yl)-amide]: the Ki was 263 nM. Regarding `COc1ccc(-c2ccccc2)c2sc(NC(=O)N3CCCCC3)cc12` [Example 3, Piperidine-1-carboxylic acid (4-methoxy-7-phenyl-benzo[b]thiophen-2-yl)-amide], the Ki is 257 nM. `COc1ccc(-c2ccccc2)c2sc(NC(=O)N3CCC(O)CC3)cc12` [Example 4, 4-Hydroxy-piperidine-1-carboxylic acid (4-methoxy-7-phenyl-benzo[b]thiophen-2-yl)-amide]: the Ki was 126 nM. The figure for `COc1ccc(-c2ccccc2)c2sc(NC(=O)N3CCC(OC)CC3)cc12` [Example 5, 4-Methoxy-piperidine-1-carboxylic acid (4-methoxy-7-phenyl-benzo[b]thiophen-2-yl)-amide] is 347 nM. The figure for `COc1ccc(-c2ccccc2)c2sc(NC(=O)N3CCC(CO)CC3)cc12` [Example 6, 4-Hydroxymethyl-piperidine-1-carboxylic acid (4-methoxy-7-phenyl-benzo[b]thiophen-2-yl)-amide] is 97.7 nM; for `COc1ccc(-c2ccccc2)c2sc(NC(=O)N3CCN(C)CC3)cc12` [Example 7, 4-Methyl-piperazine-1-carboxylic acid (4-methoxy-7-phenyl-benzo[b]thiophen-2-yl)-amide] it is 240 nM. For `COc1ccc(-c2ccccc2)c2sc(NC(=O)c3ccc(C)nc3)cc12` [Example 8, N-(4-Methoxy-7-phenyl-benzo[b]thiophen-2-yl)-6-methyl-nicotinamide] the value was 302 nM; for `COc1ccc(-c2ccccc2)c2sc(NC(=O)c3ccnc(C)c3)cc12` [Example 9, N-(4-Methoxy-7-phenyl-benzo[b]thiophen-2-yl)-2-methyl-isonicotinamide], 389 nM; for `COc1ccc(-c2ccccc2)c2sc(NC(=O)c3ccc(F)cc3)cc12` [Example 10, 4-Fluoro-N-(4-methoxy-7-phenyl-benzo[b]thiophen-2-yl)-benzamide], 43.7 nM.
